Source: patent US20020136744A1, “Sustained release drug dispersion delivery device” (Merck & Co., Inc., priority 1999, published 2002)
In brackets after ≈: the same amount, converted by molar mass.

Columns and labels:
[1] = in vitro release of the drug from the tablets, USP Apparatus II; assay type: physicochemical; conditions: for release rate / release mechanism: without a pH modulator
Method: The in vitro release of the drug from the tablets prepared as above was determined using USP Apparatus II, paddle speed 75 rpm, at 37° C. in 900 ml of dissolution media with pH values 1.2, 1.7 and 6.8. The pH 1.2 and 1.7 media consisted of 0.1N HCl solution adjusted to the appropriate pH by the addition of sodium hydroxide. The pH 6.8 medium consisted of 0.7% sodium dodecyl sulfate in 10 mM phosphate buffer.

[2] = pH-dependent solubility of the beneficial agent; assay type: physicochemical
Method: The formulation of the instant invention was prepared using 1-(3-chlorophenyl)-4-[1-(4-cyanobenzyl)-5-imidazolyl methyl]-2-piperazinone is used as the beneficial agent. The solubility of the beneficial agent decreases from about 1 g/mL at pH 1 to about 70 μg/mL at pH 7, with the solubility cliff occurring at about pH 3.5.

- release rate / release mechanism ([1]; pH about 1.2 (FIG. 1)): dominated by dissolution and diffusion
- solubility cliff (pH at which it occurs) [2]: ~3.5 pH
- solubility (in words) ([2]; low pH levels (less than about 2)): very soluble
- solubility (in words) ([2]; near neutral pH levels (greater than about 5)): practically insoluble
- solubility ([2]; pH 1, simulated gastric fluid): ~1000 mg/mL (≈ 2460 mM)
- solubility ([2]; pH 7, aqueous buffer): ~0.07 mg/mL (≈ 0.172 mM)
SMILES: N#Cc1ccc(Cn2cncc2CN2CCN(c3cccc(Cl)c3)C(=O)C2)cc1 [1-(3-chlorophenyl)-4-[1-(4-cyanobenzyl)-5-imidazolylmethyl]-2-piperazinone]
- release rate ([1]; with a pH modulator, over a range of pH levels (FIG. 2)): relatively similar over a range of pH levels
- release rate / release mechanism ([1]; media pH about 2.2 to about 6.8 (FIG. 1)): controlled by the gel extrusion mechanism
- release rate / release mechanism ([1]; pH about 1.7 (FIG. 1)): both the dissolution/diffusion and gel extrusion mechanisms are repressed
